Legend:
[1] = tested on: Hs578 cell line for human breast cancer, U373 cell line of human glioblastoma, and HepG2 hepatocellular carcinoma cells; experiment: SMS assay (small molecule sharing), cell dye-sharing between cancer cells, cell lines pooled; type: cell-based; conditions: for effect on cell dye-sharing in the SMS assay: concentration range of 0.1 to 30 μM; for inhibition of cell dye-sharing in the SMS assay: various doses that are not cytotoxic, in one or more cell lines
Excerpt: (§1) The SMS assay was developed to assess the transfer of cell dye (for example the acetoxymethyl [AM]-based Calcein AM), between cancer cells. The SMS assay can be applied to any cell lines forming tumour networks such as tumour microtubes (TM) or tunneling nanotubes (TNT), which enable the transfer of molecules across cells. The SMS assay can be used to assess networking capabilities of any cancer cell lines including HepG2 hepatocellular carcinoma cells, Hs578T cell line for human breast cancer, and U373 cell line for human glioblastoma.
(§2) The SMS assay is illustrated in FIG. 1. For the SMS assay, two sets of cells are stained with the cell dye of choice and a customary cell tracker dye (for example cell tracker blue) using established staining techniques (steps 1 and 2). Each set of cells are then co-incubated with the compound of interest to assess its capabilities to modulate the cells small molecule sharing characteristics (step 3). Then the two sets of cells are combined on a plate, for example at a ratio of 1:1, and cultured in the presence of the compound of interest (Step 4).
(§3) Finally, live cells are evaluated for viability and analyzed by flow cytometry for the uptake of cell dye in the […] cells (Step 5). The comparison of cell tracker uptake against positive and negative control enables the assessment of the compound's ability to modulate the tumour networks including those formed by TM and TNTs
(§4) The SMS assay has been applied to assess the modulation of network sharing capabilities of Protein Kinase C Modulators (PKCm) at various concentrations in the Hs578 cell line for human breast cancer, U373 cell line of human glioblastoma, and HepG2 hepatocellular carcinoma cells. PBS vehicle was used as negative control and the PKCm PHORBOL 12-MYRISTATE 13-ACETATE (PMA) at a concentration of 5 nM was used as the positive control.
(§5) FIG. 2A and FIG. 2B show the percentage of cell tracker cells that were accepting the cell dye transfer from separately stained donor cells according to the SMS assay of Example. The percentage of acceptor cells detected is shown in comparison to vehicle (upper horizontal line) and PMA at 5-10 nM concentration (lower horizontal line). Active PKCm in the SMS assay (FIG. 2A) show a decrease in acceptor cells relative to vehicle at certain concentration. […] The upper limit of the tested concentrations was determined as the maximal non-cytotoxic dose.

[2] = tested on: Hs578T cells; experiment: SMS assay in Hs578T cells; type: cell-based, human; conditions: versus vehicle and PMA (5 nM), FIG. 2A, 2B, 2D, 2E
Excerpt: as §1, §2, §3, §4, §5

[3] = tested on: HepG2 cells; experiment: SMS assay in HepG2 cells; type: cell-based, human; conditions: versus vehicle and PMA (10 nM), FIG. 2C
Excerpt: as §1
(§6) The SMS assay is illustrated in FIG. 1. For the SMS assay, two sets of cells are stained with the cell dye of choice and a customary cell tracker dye (for example cell tracker blue) using established staining techniques (steps 1 and 2). […]
(§7) Finally, live cells are evaluated for viability and analyzed by flow cytometry for the uptake of cell dye in the flow tracker-stained cells (Step 5). […]
as §5, with “line).” for “line). Active PKCm in the SMS assay (FIG. 2A) show a decrease in acceptor cells relative to vehicle at certain concentration.”

[4] = target: PKCα (Homo sapiens, UniProt P17252); set-up: key: +—activation; ++—strong activation; conditions: cPKCs, gene PRKCA; cited from earlier work
[5] = tested on: PKCβI/PKCβII; set-up: key: +—activation; ++—strong activation; conditions: cited from earlier work; for activation of PKCβI/PKCβII: cPKCs, gene PRKCB
[6] = target: T1, PKCε (Homo sapiens, UniProt Q02156); set-up: key: +—activation; ++—strong activation; conditions: nPKCs, gene PRKCE; cited from earlier work
T1 sequence (Q02156 1-737): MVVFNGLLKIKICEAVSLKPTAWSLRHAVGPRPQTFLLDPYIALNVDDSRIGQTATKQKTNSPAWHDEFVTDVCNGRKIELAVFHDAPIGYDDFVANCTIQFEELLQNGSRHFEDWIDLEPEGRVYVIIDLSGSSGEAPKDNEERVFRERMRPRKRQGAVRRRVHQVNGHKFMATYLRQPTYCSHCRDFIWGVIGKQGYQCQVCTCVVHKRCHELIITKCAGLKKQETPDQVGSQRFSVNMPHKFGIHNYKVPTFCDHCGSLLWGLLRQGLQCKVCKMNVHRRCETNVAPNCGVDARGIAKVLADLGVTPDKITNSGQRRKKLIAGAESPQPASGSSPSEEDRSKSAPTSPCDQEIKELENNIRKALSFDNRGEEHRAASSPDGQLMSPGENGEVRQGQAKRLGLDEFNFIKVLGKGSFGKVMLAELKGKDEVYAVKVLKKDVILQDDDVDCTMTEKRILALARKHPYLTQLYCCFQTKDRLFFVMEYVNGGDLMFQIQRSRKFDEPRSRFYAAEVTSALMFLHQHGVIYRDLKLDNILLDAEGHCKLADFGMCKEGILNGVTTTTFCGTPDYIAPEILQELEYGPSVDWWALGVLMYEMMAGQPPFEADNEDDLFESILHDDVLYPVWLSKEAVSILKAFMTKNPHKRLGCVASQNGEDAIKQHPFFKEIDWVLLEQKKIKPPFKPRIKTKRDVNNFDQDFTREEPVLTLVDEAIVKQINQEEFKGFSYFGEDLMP

[7] = target: PKCγ (Homo sapiens, UniProt P05129); set-up: key: +—activation; ++—strong activation; conditions: cPKCs, gene PRKCG; cited from earlier work
[8] = target: PKCδ (Homo sapiens, UniProt Q05655); set-up: key: +—activation; ++—strong activation; conditions: nPKCs, gene PRKCD; cited from earlier work
[9] = target: PKCη (Homo sapiens, UniProt P24723); set-up: key: +—activation; ++—strong activation; conditions: nPKCs, gene PRKCH; cited from earlier work
[10] = target: PKCθ (Homo sapiens, UniProt Q04759); set-up: key: +—activation; ++—strong activation; conditions: nPKCs, gene PRKCQ; cited from earlier work
[11] = tested on: U373 cells; experiment: SMS assay in U373 cells; type: cell-based, human; conditions: versus vehicle and PMA (10 nM), FIG. 2C
Excerpt: as §1, §6, §7
as §5, with “line).” for “line). Active PKCm in the SMS assay (FIG. 2A) show a decrease in acceptor cells relative to vehicle at certain concentration.”

PKCδ, sequence (Q05655 whole entry): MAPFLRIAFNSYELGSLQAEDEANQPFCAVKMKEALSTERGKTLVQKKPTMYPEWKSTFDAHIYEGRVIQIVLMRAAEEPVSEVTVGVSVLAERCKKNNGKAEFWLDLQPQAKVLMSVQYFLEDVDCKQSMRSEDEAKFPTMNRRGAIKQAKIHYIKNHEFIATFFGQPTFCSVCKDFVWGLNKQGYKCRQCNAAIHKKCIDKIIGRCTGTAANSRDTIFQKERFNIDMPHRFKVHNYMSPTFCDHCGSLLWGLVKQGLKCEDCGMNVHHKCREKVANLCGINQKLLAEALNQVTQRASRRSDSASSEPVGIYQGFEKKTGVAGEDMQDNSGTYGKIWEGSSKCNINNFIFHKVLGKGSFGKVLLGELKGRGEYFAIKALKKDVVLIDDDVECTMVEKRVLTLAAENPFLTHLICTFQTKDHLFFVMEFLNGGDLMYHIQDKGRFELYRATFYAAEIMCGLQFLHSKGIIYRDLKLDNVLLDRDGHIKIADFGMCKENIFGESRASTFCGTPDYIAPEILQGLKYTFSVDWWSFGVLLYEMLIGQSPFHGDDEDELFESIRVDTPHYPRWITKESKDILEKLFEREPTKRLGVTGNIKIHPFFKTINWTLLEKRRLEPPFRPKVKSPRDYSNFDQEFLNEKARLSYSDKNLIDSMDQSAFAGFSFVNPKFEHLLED
PKCη, sequence (P24723 whole entry): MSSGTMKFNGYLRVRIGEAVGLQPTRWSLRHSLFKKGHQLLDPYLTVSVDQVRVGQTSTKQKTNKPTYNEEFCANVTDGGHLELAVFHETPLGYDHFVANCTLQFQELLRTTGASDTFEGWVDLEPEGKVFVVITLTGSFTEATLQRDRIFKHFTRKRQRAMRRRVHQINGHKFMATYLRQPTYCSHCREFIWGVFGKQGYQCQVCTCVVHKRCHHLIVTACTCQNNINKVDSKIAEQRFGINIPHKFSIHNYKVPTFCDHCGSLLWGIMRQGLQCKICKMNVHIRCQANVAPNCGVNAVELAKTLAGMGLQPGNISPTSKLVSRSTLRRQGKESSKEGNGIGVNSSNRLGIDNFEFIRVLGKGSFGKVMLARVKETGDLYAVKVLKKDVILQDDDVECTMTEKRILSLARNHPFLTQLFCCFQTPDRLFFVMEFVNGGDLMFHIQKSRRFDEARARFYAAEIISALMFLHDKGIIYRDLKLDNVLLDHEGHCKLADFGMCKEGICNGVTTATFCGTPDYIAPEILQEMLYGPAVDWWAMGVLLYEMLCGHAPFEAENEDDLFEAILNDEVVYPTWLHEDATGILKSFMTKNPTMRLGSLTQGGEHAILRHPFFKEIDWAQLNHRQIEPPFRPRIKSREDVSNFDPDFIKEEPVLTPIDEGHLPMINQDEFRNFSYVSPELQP
PKCθ, sequence (Q04759 whole entry): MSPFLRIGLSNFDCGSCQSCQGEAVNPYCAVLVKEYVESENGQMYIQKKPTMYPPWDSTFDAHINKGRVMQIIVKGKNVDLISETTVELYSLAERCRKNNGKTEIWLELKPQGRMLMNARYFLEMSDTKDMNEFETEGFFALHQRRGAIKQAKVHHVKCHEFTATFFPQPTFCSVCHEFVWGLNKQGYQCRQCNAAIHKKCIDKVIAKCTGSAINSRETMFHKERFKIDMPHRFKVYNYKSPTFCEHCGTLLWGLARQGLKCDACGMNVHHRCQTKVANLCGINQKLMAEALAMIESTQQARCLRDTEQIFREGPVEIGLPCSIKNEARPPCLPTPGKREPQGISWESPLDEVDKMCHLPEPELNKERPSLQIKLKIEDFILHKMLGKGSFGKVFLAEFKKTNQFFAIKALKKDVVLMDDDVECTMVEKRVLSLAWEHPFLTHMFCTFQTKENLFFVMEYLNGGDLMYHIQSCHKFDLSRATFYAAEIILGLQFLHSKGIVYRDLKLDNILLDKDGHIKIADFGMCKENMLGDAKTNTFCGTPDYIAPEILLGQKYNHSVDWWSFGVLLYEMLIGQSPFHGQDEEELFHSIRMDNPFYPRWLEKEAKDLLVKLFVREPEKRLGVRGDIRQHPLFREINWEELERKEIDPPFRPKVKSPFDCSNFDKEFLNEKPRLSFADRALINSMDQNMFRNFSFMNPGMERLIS

## CCCCCCCCCCNc1cc(CO)c2cc[nH]c2c1 [6-(N-Decylamino)-4-Hydroxymethylindole]
[1]
  effect on cell dye-sharing in the SMS assay: did not have any effect
[2]
  cell dye-sharing in the SMS assay (percentage of acceptor cells): not interfering with cell dye-sharing

## CCC/C=C/C=C/C(=O)O[C@H]1/C(=C/C(=O)OC)C[C@H]2C[C@H]([C@@H](C)O)OC(=O)C[C@H](O)C[C@@H]3C[C@H](OC(C)=O)C(C)(C)[C@](O)(C[C@@H]4C/C(=C/C(=O)OC)C[C@H](/C=C/C(C)(C)[C@]1(O)O2)O4)O3 [Bryostatin 1]
[1]
  inhibition of cell dye-sharing in the SMS assay: marked inhibition of cell dye-sharing
[3]
  cell dye-sharing in the SMS assay (percentage of acceptor cells): inhibition of cell dye-sharing
[4]
  activation of PKCα: +
[5]; βI only, activation and translocation in transfected CHO cells (Wender 2011)
  activation of PKCβI: + (βI)
[6]
  activation of PKCε: +

## CCCCCC1CC1CC1CC1CCCCCCCC(=O)O (centres unmarked) [FR236924]
[1]
  effect on cell dye-sharing in the SMS assay: did not have any effect
[2]
  cell dye-sharing in the SMS assay (percentage of acceptor cells): not interfering with cell dye-sharing

## CC(C)[C@H]1C(=O)N[C@H](CO)Cc2c[nH]c3cccc(c23)N1C [Indolactam V]
[1]
  inhibition of cell dye-sharing in the SMS assay: marked inhibition of cell dye-sharing
[2]
  cell dye-sharing in the SMS assay (percentage of acceptor cells): inhibition of cell dye-sharing
[4]
  activation of PKCα: +
[5]
  activation of PKCβI/PKCβII: ++
[7]
  activation of PKCγ: +
[8]
  activation of PKCδ: ++
[6]
  activation of PKCε: +
[9]
  activation of PKCη: +

## C/C=C(/C)C(=O)O[C@H]1C(C)=C[C@]23C(=O)[C@@H](C=C(CO)[C@@H](O)[C@]12O)[C@H]1[C@@H](C[C@H]3C)C1(C)C [Ingenol-3-angelate]
[1]
  effect on cell dye-sharing in the SMS assay: did not have any effect
[1]; several different tumour cell types
  disconnection of tumour cell types in the assay for disconnection: does not disconnect
[4]
  activation of PKCα: +
[5]
  activation of PKCβI/PKCβII: +
[7]
  activation of PKCγ: +
[8]
  activation of PKCδ: +
[6]
  activation of PKCε: +

## CCCCCCCCCCCCCC(=O)O[C@@H]1[C@@H](C)[C@@]2(O)[C@@H](C=C(CO)C[C@]3(O)C(=O)C(C)=C[C@@H]23)[C@@H]2C(C)(C)[C@]12OC(C)=O [PMA, 12-O-tetradecanoyl-phorbol-13-acetate]
[1]
  inhibition of cell dye-sharing in the SMS assay: marked inhibition of cell dye-sharing
[2]
  cell dye-sharing in the SMS assay (percentage of acceptor cells): inhibition of cell dye-sharing
[4]
  activation of PKCα: +
[5]
  activation of PKCβI/PKCβII: +
[7]
  activation of PKCγ: +
[8]
  activation of PKCδ: +
[6]
  activation of PKCε: +
[9]
  activation of PKCη: +
[10]
  activation of PKCθ: +

## O=S(=O)(NCCCCCCc1ccccc1)c1cccc2c(Cl)cccc12 [SC-9]
[1]
  effect on cell dye-sharing in the SMS assay: did not have any effect
[2]
  cell dye-sharing in the SMS assay (percentage of acceptor cells): not interfering with cell dye-sharing

## CCC/C=C/C=C/C(=O)O[C@H]1/C(=C/C(=O)OC)C[C@H]2C[C@H]([C@@H](C)O)OC(=O)C[C@H](O)C[C@@H]3C[C@H](OC(C)=O)C(C)(C)[C@](O)(C[C@@H]4C/C(=C/C(=O)OC)C[C@H](/C=C/C(C)(C)[C@]1(O)O2)O4)O3 [bryostatin]
[2]
  cell dye-sharing in the SMS assay (percentage of acceptor cells): inhibition of cell dye-sharing

## Bryostatin 2
[1]
  inhibition of cell dye-sharing in the SMS assay: marked inhibition of cell dye-sharing
[11]
  cell dye-sharing in the SMS assay (percentage of acceptor cells): inhibition of cell dye-sharing
